Measurements published in PMC9571063 (Molecules, 2022).

Tests used:
Assay in all cases: KINOMEscan
Assay type in all cases: binding
Conditions in all cases: read-out: Percent Control
[1] = target: T1, FLT3 (Homo sapiens, UniProt P36888)
T1 construct: purchased Eurofins DiscoverX KINOMEscan (scanMAX 468)

[2] = target: T2, MST1R (Homo sapiens, UniProt Q04912)
T2 construct: purchased Eurofins DiscoverX KINOMEscan (scanMAX 468)

[3] = target: T3, KIT(V559D,V654A) (Homo sapiens, UniProt P10721, V559D/V654A)
T3 construct: purchased Eurofins DiscoverX KINOMEscan (scanMAX 468)
T3 sequence (P10721 26-976 V559D/V654A): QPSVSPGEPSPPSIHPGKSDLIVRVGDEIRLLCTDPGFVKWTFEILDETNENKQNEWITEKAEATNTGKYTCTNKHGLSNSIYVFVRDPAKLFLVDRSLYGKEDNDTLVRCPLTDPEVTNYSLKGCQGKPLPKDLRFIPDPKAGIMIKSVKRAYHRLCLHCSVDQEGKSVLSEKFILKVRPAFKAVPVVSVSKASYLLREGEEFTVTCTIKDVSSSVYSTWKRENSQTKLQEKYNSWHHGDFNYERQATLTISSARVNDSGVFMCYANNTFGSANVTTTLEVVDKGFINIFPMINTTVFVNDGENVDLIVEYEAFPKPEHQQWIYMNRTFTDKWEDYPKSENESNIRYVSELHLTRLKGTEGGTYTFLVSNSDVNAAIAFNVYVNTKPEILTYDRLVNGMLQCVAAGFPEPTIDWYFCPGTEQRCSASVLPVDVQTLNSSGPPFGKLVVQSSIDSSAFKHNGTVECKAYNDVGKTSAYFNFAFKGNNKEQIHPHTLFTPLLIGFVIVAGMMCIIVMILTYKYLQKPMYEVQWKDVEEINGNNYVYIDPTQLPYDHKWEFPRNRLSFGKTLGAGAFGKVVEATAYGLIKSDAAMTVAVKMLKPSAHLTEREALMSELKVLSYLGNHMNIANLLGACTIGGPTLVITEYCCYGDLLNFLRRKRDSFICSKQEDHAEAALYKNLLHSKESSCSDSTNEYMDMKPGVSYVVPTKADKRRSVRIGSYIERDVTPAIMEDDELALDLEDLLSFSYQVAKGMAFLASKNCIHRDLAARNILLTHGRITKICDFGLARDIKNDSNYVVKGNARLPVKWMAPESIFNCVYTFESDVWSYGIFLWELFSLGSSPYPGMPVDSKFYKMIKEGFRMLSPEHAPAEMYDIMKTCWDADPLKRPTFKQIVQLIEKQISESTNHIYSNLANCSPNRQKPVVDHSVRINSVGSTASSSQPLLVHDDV

[4] = target: T4, MEK5 (Homo sapiens, UniProt Q13163)
T4 construct: purchased Eurofins DiscoverX KINOMEscan (scanMAX 468)

[5] = target: T5, PLK2 (Homo sapiens, UniProt Q9NYY3)
T5 construct: purchased Eurofins DiscoverX KINOMEscan (scanMAX 468)

[6] = target: T6, MERTK (Homo sapiens, UniProt Q12866)
T6 construct: purchased Eurofins DiscoverX KINOMEscan (scanMAX 468)
T6 sequence (Q12866 21-999): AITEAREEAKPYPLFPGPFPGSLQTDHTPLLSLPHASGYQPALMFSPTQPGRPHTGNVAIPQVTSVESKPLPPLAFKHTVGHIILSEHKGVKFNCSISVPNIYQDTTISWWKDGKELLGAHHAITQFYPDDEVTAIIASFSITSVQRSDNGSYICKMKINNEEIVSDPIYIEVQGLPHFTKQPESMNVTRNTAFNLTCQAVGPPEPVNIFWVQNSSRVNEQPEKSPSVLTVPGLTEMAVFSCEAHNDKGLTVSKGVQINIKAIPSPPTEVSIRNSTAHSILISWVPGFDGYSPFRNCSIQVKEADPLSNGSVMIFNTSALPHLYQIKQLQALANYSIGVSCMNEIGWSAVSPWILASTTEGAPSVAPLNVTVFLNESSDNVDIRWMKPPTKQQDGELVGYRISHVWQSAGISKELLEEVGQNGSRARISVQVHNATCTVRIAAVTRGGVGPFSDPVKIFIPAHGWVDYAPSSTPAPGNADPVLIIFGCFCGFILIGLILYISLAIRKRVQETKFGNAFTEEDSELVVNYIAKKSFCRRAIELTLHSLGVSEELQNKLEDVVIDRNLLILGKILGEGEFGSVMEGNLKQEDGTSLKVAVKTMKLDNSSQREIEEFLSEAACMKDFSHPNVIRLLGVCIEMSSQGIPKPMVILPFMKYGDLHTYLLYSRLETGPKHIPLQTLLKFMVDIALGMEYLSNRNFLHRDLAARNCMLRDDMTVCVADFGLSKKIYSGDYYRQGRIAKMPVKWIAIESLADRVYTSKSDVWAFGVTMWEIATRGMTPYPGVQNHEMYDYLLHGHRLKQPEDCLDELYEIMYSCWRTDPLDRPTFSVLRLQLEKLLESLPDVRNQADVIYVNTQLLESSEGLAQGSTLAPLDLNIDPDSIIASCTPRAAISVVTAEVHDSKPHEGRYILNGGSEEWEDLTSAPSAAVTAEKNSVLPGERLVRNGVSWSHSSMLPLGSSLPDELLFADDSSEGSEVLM

[7] = target: T7, TNNI3K (Homo sapiens, UniProt Q59H18)
T7 construct: purchased Eurofins DiscoverX KINOMEscan (scanMAX 468)

[8] = target: T8, KIT(D816H) (Homo sapiens, UniProt P10721, D816H)
T8 construct: purchased Eurofins DiscoverX KINOMEscan (scanMAX 468)
T8 sequence (P10721 26-976 D816H): as the sequence (P10721 26-976 V559D/V654A) above, with D534V, A629V, D791H counted along it

[9] = target: T9, BMPR2 (Homo sapiens, UniProt Q13873)
T9 construct: purchased Eurofins DiscoverX KINOMEscan (scanMAX 468)

[10] = target: T10, PIKFYVE (Homo sapiens, UniProt Q9Y2I7)
T10 construct: purchased Eurofins DiscoverX KINOMEscan (scanMAX 468)

[11] = target: T11, TLK2 (Homo sapiens, UniProt Q86UE8)
T11 construct: purchased Eurofins DiscoverX KINOMEscan (scanMAX 468)

[12] = target: T12, ASK2 (Homo sapiens, UniProt O95382)
T12 construct: purchased Eurofins DiscoverX KINOMEscan (scanMAX 468)

[13] = target: T13, RIOK3 (Homo sapiens, UniProt O14730)
T13 construct: purchased Eurofins DiscoverX KINOMEscan (scanMAX 468)

[14] = target: T14, PIK3C2G (Homo sapiens, UniProt O75747)
T14 construct: purchased Eurofins DiscoverX KINOMEscan (scanMAX 468)

[15] = target: T15, CDK4-cyclinD3 (Homo sapiens, UniProt P11802)
T15 construct: purchased Eurofins DiscoverX KINOMEscan (scanMAX 468)

[16] = target: T16, WEE1 (Homo sapiens, UniProt P30291)
T16 construct: purchased Eurofins DiscoverX KINOMEscan (scanMAX 468)

[17] = target: T17, TGFBR1 (Homo sapiens, UniProt P36897)
T17 construct: purchased Eurofins DiscoverX KINOMEscan (scanMAX 468)

[18] = target: T18, RSK4(Kin.Dom.1-N-terminal) (Homo sapiens, UniProt Q9UK32)
T18 construct: RSK4(Kin.Dom.1-N-terminal); purchased Eurofins DiscoverX KINOMEscan (scanMAX 468)

[19] = target: T19, GRK7 (Homo sapiens, UniProt Q8WTQ7)
T19 construct: purchased Eurofins DiscoverX KINOMEscan (scanMAX 468)

[20] = target: T20, PIK3CB (Homo sapiens, UniProt P42338)
T20 construct: purchased Eurofins DiscoverX KINOMEscan (scanMAX 468)
T20 sequence (P42338 whole entry): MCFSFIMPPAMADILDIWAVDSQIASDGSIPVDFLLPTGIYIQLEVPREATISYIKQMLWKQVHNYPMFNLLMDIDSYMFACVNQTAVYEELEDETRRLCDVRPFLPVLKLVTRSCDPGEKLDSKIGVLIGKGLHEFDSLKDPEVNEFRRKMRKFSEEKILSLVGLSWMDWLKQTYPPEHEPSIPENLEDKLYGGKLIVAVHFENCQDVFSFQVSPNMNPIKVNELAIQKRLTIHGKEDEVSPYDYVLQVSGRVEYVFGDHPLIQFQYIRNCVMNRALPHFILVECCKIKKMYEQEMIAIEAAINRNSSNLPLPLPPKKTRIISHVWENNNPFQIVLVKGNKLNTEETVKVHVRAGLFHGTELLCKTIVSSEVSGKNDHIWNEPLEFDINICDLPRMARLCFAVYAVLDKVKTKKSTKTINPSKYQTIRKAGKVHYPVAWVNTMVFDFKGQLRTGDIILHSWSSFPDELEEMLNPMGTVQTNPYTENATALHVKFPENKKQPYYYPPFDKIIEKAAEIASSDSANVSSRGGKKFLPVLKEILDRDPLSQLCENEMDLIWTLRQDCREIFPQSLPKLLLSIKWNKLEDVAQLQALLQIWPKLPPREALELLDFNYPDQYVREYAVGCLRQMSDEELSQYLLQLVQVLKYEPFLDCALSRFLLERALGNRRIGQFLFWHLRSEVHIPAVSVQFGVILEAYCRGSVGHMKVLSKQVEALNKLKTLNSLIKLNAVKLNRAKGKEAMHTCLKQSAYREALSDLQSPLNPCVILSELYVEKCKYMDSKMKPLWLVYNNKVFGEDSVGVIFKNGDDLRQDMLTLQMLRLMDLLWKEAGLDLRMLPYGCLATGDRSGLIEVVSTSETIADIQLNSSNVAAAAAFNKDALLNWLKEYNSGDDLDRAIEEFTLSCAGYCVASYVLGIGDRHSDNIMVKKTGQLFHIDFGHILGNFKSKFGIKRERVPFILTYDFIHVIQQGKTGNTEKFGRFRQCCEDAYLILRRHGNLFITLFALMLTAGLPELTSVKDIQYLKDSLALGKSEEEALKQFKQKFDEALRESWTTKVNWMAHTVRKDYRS

[21] = target: T21, CDC2L1 (Homo sapiens, UniProt P21127)
T21 construct: purchased Eurofins DiscoverX KINOMEscan (scanMAX 468)

[22] = target: T22, MKNK2 (Homo sapiens, UniProt Q9HBH9)
T22 construct: purchased Eurofins DiscoverX KINOMEscan (scanMAX 468)

[23] = target: T23, TXK (Homo sapiens, UniProt P42681)
T23 construct: purchased Eurofins DiscoverX KINOMEscan (scanMAX 468)

[24] = target: T24, CAMKK1 (Homo sapiens, UniProt Q8N5S9)
T24 construct: purchased Eurofins DiscoverX KINOMEscan (scanMAX 468)

[25] = target: T25, EGFR(L747-S752del, P753S) (Homo sapiens, UniProt P00533, DEL747-752/P753S)
T25 construct: purchased Eurofins DiscoverX KINOMEscan (scanMAX 468)

[26] = target: T26, CDK9 (Homo sapiens, UniProt P50750)
T26 construct: purchased Eurofins DiscoverX KINOMEscan (scanMAX 468)

[27] = target: T27, CDK8 (Homo sapiens, UniProt P49336)
T27 construct: purchased Eurofins DiscoverX KINOMEscan (scanMAX 468)

[28] = target: T28, MLK2 (Homo sapiens, UniProt Q02779)
T28 construct: purchased Eurofins DiscoverX KINOMEscan (scanMAX 468)

[29] = target: T29, ABL1(M351T)-phosphorylated (Homo sapiens, UniProt P00519, M351T)
T29 construct: purchased Eurofins DiscoverX KINOMEscan (scanMAX 468)

[30] = target: T30, EPHA7 (Homo sapiens, UniProt Q15375)
T30 construct: purchased Eurofins DiscoverX KINOMEscan (scanMAX 468)
T30 sequence (Q15375 28-998): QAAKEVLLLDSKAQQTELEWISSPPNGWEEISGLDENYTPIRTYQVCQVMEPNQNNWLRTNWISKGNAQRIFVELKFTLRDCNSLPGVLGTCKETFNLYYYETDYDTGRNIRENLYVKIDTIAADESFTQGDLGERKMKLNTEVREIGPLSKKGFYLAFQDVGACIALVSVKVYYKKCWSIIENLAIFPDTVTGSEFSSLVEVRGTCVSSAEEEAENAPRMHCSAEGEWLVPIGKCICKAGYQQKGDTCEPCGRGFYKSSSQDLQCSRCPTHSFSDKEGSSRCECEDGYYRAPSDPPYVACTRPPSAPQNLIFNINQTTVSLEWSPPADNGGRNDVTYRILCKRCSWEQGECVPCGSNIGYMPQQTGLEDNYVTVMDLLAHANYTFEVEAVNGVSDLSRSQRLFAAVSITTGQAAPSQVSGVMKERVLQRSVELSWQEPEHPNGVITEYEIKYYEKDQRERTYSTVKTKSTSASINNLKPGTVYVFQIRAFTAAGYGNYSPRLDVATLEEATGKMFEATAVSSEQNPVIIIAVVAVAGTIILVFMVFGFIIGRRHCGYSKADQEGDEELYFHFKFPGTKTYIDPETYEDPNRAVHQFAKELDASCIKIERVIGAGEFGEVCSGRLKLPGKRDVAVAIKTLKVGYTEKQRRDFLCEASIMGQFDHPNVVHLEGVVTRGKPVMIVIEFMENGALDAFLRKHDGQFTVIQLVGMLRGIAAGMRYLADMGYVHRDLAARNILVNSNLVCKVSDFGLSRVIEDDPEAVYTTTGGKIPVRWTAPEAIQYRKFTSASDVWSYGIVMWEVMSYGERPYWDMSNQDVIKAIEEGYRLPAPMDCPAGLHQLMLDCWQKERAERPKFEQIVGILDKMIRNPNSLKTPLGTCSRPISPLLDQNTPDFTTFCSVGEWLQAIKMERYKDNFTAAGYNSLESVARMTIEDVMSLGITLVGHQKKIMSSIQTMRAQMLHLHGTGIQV

[31] = target: T31, GAK (Homo sapiens, UniProt O14976)
T31 construct: purchased Eurofins DiscoverX KINOMEscan (scanMAX 468)

[32] = target: T32, ABL1(Q252H)-nonphosphorylated (Homo sapiens, UniProt P00519, Q252H)
T32 construct: purchased Eurofins DiscoverX KINOMEscan (scanMAX 468)

[33] = target: T33, TYK2(JH2domain-pseudokinase) (Homo sapiens, UniProt P29597)
T33 construct: TYK2(JH2domain-pseudokinase); purchased Eurofins DiscoverX KINOMEscan (scanMAX 468)

[34] = target: T34, FLT3(N841I) (Homo sapiens, UniProt P36888, N841I)
T34 construct: purchased Eurofins DiscoverX KINOMEscan (scanMAX 468)

[35] = target: T35, PIM1 (Homo sapiens, UniProt P11309)
T35 construct: purchased Eurofins DiscoverX KINOMEscan (scanMAX 468)

[36] = target: T36, PIP5K1C (Homo sapiens, UniProt O60331)
T36 construct: purchased Eurofins DiscoverX KINOMEscan (scanMAX 468)

[37] = target: T37, NEK7 (Homo sapiens, UniProt Q8TDX7)
T37 construct: purchased Eurofins DiscoverX KINOMEscan (scanMAX 468)

[38] = target: T38, PRKD2 (Homo sapiens, UniProt Q9BZL6)
T38 construct: purchased Eurofins DiscoverX KINOMEscan (scanMAX 468)

[39] = target: T39, ULK1 (Homo sapiens, UniProt O75385)
T39 construct: purchased Eurofins DiscoverX KINOMEscan (scanMAX 468)
T39 sequence (O75385 whole entry): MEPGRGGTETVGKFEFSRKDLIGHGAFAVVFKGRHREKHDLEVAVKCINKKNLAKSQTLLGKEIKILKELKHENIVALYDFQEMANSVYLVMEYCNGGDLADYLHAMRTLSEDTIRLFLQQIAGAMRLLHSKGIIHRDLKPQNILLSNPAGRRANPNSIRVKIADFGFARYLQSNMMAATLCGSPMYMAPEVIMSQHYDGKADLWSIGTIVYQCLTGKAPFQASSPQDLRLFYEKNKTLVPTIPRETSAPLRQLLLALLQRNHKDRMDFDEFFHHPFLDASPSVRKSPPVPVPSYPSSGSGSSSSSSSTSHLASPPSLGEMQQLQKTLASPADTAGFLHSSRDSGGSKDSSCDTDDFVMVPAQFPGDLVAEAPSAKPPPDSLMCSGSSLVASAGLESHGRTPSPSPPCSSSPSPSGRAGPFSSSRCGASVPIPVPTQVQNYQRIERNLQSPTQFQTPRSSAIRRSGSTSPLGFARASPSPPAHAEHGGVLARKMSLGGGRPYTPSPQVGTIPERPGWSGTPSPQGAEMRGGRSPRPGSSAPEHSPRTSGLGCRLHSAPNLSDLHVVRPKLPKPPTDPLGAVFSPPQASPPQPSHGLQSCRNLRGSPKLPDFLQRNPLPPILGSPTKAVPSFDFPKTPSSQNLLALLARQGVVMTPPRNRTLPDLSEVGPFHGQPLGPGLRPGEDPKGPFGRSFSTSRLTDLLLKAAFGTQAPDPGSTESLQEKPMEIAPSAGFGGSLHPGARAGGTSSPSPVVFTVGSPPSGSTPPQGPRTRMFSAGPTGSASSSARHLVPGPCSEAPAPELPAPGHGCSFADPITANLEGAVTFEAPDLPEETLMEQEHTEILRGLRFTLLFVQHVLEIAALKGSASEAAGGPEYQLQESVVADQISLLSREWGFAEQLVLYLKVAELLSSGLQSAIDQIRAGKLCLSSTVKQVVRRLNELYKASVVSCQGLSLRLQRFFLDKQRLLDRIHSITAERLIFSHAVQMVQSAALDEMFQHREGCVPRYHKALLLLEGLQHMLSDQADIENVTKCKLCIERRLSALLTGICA

[40] = target: T40, NDR1 (Homo sapiens, UniProt Q15208)
T40 construct: purchased Eurofins DiscoverX KINOMEscan (scanMAX 468)

[41] = target: T41, SGK (Homo sapiens, UniProt O00141)
T41 construct: purchased Eurofins DiscoverX KINOMEscan (scanMAX 468)

[42] = target: T42, CSNK1G2 (Homo sapiens, UniProt P78368)
T42 construct: purchased Eurofins DiscoverX KINOMEscan (scanMAX 468)

Measured: remaining binding at 1 µM

Cc1ccc(-n2cc(COc3cccc4cnc(Nc5cccc(Cl)c5)nc34)nn2)c([N+](=O)[O-])c1 [DB18]
85%: [37]
97%: [14]
99%: [12] | [29]
96%: [18] | [23]
88%: [32]
83%: [25]
61%: [10]
89%: [40]
84%: [1]
90%: [42]
77%: [34]
95%: [4]
92%: [7]
100%: all other assays above
